Test results from PubChem BioAssay AID1259407 (Chemical Carcinogenesis Research Information System (CCRIS), 2018).
Activity calls are given as the source filed them. No rule for the calls is given here.

System: CCRIS mutagenicity, Ames/micronucleus/aberration tests
Test: CCRIS mutagenicity studies
[1] = Test System: CHINESE HAMSTER V-79, Strain/Indicator: V-79/6-THIOGUANINE, Metabolic Activation: NONE, Method: STANDARD PLATE
[2] = Test System: AMES SALMONELLA TYPHIMURIUM, Strain/Indicator: TA98, Metabolic Activation: NONE, Method: PREINCUBATION
[3] = Test System: AMES SALMONELLA TYPHIMURIUM, Strain/Indicator: TA100, Metabolic Activation: NONE, Method: PREINCUBATION

Measured: mutagenic call

[S]=[Pb]
active: [1] active; positive

CCCCCCCOc1ccccc1NC(=O)OC(C)CN(CC)CC (stereo not drawn)
inactive: Test System: AMES SALMONELLA TYPHIMURIUM, Strain/Indicator: TA98, Metabolic Activation: MOUSE, LIVER, S-9, AROCLOR 1254, Method: PREINCUBATION inactive; negative | [2] inactive; negative | Test System: AMES SALMONELLA TYPHIMURIUM, Strain/Indicator: TA100, Metabolic Activation: MOUSE, LIVER, S-9, AROCLOR 1254, Method: PREINCUBATION inactive; negative | [3] inactive; negative | Test System: AMES SALMONELLA TYPHIMURIUM, Strain/Indicator: TA1535, Metabolic Activation: MOUSE, LIVER, S-9, AROCLOR 1254, Method: PREINCUBATION inactive; negative | Test System: AMES SALMONELLA TYPHIMURIUM, Strain/Indicator: TA1535, Metabolic Activation: NONE, Method: PREINCUBATION inactive; negative | Test System: AMES SALMONELLA TYPHIMURIUM, Strain/Indicator: TA1538, Metabolic Activation: MOUSE, LIVER, S-9, AROCLOR 1254, Method: PREINCUBATION inactive; negative | Test System: AMES SALMONELLA TYPHIMURIUM, Strain/Indicator: TA1538, Metabolic Activation: NONE, Method: PREINCUBATION inactive; negative | Test System: AMES SALMONELLA TYPHIMURIUM, Strain/Indicator: TA1978, Metabolic Activation: MOUSE, LIVER, S-9, AROCLOR 1254, Method: PREINCUBATION inactive; negative | Test System: AMES SALMONELLA TYPHIMURIUM, Strain/Indicator: TA1978, Metabolic Activation: NONE, Method: PREINCUBATION inactive; negative | Test System: E. COLI, Strain/Indicator: CM611 UVRA/LEXA, Metabolic Activation: MOUSE, LIVER, S-9, AROCLOR 1254, Method: PREINCUBATION inactive; negative | Test System: E. COLI, Strain/Indicator: CM611 UVRA/LEXA, Metabolic Activation: NONE, Method: PREINCUBATION inactive; negative | Test System: E. COLI, Strain/Indicator: WP2, Metabolic Activation: MOUSE, LIVER, S-9, AROCLOR 1254, Method: PREINCUBATION inactive; negative | Test System: E. COLI, Strain/Indicator: WP2, Metabolic Activation: NONE, Method: PREINCUBATION inactive; negative | Test System: E. COLI, Strain/Indicator: WP2 UVRA, Metabolic Activation: MOUSE, LIVER, S-9, AROCLOR 1254, Method: PREINCUBATION inactive; negative | Test System: E. COLI, Strain/Indicator: WP2 UVRA, Metabolic Activation: NONE, Method: PREINCUBATION inactive; negative | Test System: E. COLI, Strain/Indicator: WP67 UVRA/POLA, Metabolic Activation: MOUSE, LIVER, S-9, AROCLOR 1254, Method: PREINCUBATION inactive; negative | Test System: E. COLI, Strain/Indicator: WP67 UVRA/POLA, Metabolic Activation: NONE, Method: PREINCUBATION inactive; negative

CC(=O)ON(C(C)=O)c1ccc(/C=C/c2ccccc2)cc1
active: [1] active; positive

CC(=O)N(O)c1ccc(Br)cc1
inactive: Test System: AMES SALMONELLA TYPHIMURIUM, Strain/Indicator: TA98, Metabolic Activation: NONE, Method: STANDARD PLATE inactive; negative | Test System: AMES SALMONELLA TYPHIMURIUM, Strain/Indicator: TA98, Metabolic Activation: RAT, LIVER, S-9, AROCLOR 1254, Method: STANDARD PLATE inactive; negative | Test System: AMES SALMONELLA TYPHIMURIUM, Strain/Indicator: TA100, Metabolic Activation: NONE, Method: STANDARD PLATE inactive; negative | Test System: AMES SALMONELLA TYPHIMURIUM, Strain/Indicator: TA100, Metabolic Activation: RAT, LIVER, S-9, AROCLOR 1254, Method: STANDARD PLATE inactive; negative

OCCN1CCNCC1
inactive: [2] inactive; negative | Test System: AMES SALMONELLA TYPHIMURIUM, Strain/Indicator: TA98, Metabolic Activation: RAT, LIVER, S-9, PCB, Method: PREINCUBATION inactive; negative | [3] inactive; negative | Test System: AMES SALMONELLA TYPHIMURIUM, Strain/Indicator: TA100, Metabolic Activation: RAT, LIVER, S-9, PCB, Method: PREINCUBATION inactive; negative
